This note sets out measurements from patent US7943770B2, “Fused quinoline derivative and use thereof” (Takeda Pharmaceutical Company Limited, priority 2004, dated 2011).

Structures can show the parent of a compound that is named as a salt. Some results are limits rather than exact numbers.

The experiment addresses T1, hNK2 receptor (Homo sapiens, UniProt P21452).
T1 construct: host or cells: CHO cells
T1 sequence (P21452 1-398): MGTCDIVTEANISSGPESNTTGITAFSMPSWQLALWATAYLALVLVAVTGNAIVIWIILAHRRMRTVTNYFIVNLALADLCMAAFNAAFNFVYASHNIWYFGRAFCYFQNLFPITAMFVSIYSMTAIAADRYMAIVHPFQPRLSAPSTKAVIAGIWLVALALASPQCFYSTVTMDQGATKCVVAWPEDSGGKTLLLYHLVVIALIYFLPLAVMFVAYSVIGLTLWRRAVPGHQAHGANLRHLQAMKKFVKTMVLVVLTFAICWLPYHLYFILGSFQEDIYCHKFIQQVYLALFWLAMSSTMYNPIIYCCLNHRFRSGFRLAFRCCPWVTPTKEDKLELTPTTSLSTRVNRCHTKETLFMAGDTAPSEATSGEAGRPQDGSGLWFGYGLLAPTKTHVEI
As to the kind of experiment: Radio-ligand ([125I]-NKA) receptor binding inhibitory activity using membrane fraction of hNK2 receptor-expressing CHO cell. Conditions: membrane fraction of hNK2 receptor-expressing CHO cells, 25° C., 30 min. The method in brief: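 Membranes from hNK2-expressing CHO cells (20 μg/mL suspension) incubated with test compound and [125I]-NKA ([…] solution as added) in Tris-HCl pH 7.4 with BSA, protease inhibitors, 3 mM MnCl2, 25 °C, 30 min. Bound radioactivity by GF/C filtration and scintillation; inhibition expressed relative to specific binding (total minus unlabeled-NKA non-specific).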
For the compound `COC[C@@H]1Nc2ccccc2[C@H]2[C@@H]1CCN2C(=O)[C@H]1CCCC[C@H]1NC(=O)c1ccc2nccnc2c1` [Example 246, N-((1R,2S)-2-{[(3aR,4R,9bR)-4-(Methoxymethyl)-2,3,3a,4,5,9b-hexahydro-1H-pyrrolo[3,2-c]quinolin-1-yl]carbonyl}cyclohexyl)quinoxaline-6-carboxamide], the IC50 (in general, the midpoint of a concentration-inhibition curve) is less than 10 nM.
The figure for `O=C(N[C@@H]1CCCC[C@@H]1C(=O)N1CC[C@H]2[C@@H](c3ccsc3)Nc3ccccc3[C@H]21)c1ccccc1` (relative stereo) [Example 18, N-((1R,2S)-2-{[(3aS*,4S*,9bS*)-4-(3-Thienyl)-2,3,3a,4,5,9b-hexahydro-1H-pyrrolo[3,2-c]quinolin-1-yl]carbonyl}cyclohexyl)benzamide] is less than 1 nM; for `COC(=O)c1ccc(C(=O)N[C@@H]2CCCC[C@@H]2C(=O)N2CC[C@@H]3[C@H](c4ccccc4)Nc4ccccc4[C@@H]32)cc1` [Example 100, Methyl 4-{[((1R,2S)-2-{[(3aR,4R,9bR)-4-phenyl-2,3,3a,4,5,9b-hexahydro-1H-pyrrolo[3,2-c]quinolin-1-yl]carbonyl}cyclohexyl)amino]carbonyl}benzoate] it is less than 10 nM; for `CNC[C@@H]1Nc2ccccc2[C@H]2[C@@H]1CCN2C(=O)[C@H]1CCCC[C@H]1NC(=O)c1ccccc1` (relative stereo) [Example 53, N-[(1R,2S)-2-({(3aR*,4R*,9bR*)-4-[(Methylamino)methyl]-2,3,3a,4,5,9b-hexahydro-1H-pyrrolo[3,2-c]quinolin-1-yl}carbonyl)cyclohexyl]benzamide dihydrochloride] it is less than 10 nM.
Compound `CCCCNC(=O)N[C@@H]1CCCC[C@@H]1C(=O)N1CC[C@@H]2[C@H](c3ccccc3)Nc3ccccc3[C@@H]21` [Example 153, N-Butyl-N′-((1R,2S)-2-{[(3aR,4R,9bR)-4-phenyl-2,3,3a,4,5,9b-hexahydro-1H-pyrrolo[3,2-c]quinolin-1-yl]carbonyl}cyclohexyl)urea] came in with an IC50 of less than 1 nM.
Take `Cn1ccnc1C(=O)N[C@@H]1CCCC[C@@H]1C(=O)N1CC[C@@H]2[C@H](c3ccccc3)Nc3ccccc3[C@@H]21` [Example 132, 1-Methyl-N-((1R,2S)-2-{[(3aR,4R,9bR)-4-phenyl-2,3,3a,4,5,9b-hexahydro-1H-pyrrolo[3,2-c]quinolin-1-yl]carbonyl}cyclohexyl)-1H-imidazole-2-carboxamide]: the IC50 was less than 10 nM.
With `Cc1cccc(C(=O)N[C@@H]2CCCC[C@@H]2C(=O)N2CC[C@@H]3[C@H](c4ccccc4)Nc4ccccc4[C@@H]32)c1` [Example 98, 3-Methyl-N-((1R,2S)-2-{[(3aR,4R,9bR)-4-phenyl-2,3,3a,4,5,9b-hexahydro-1H-pyrrolo[3,2-c]quinolin-1-yl]carbonyl}cyclohexyl)benzamide] the figure was less than 1 nM; with `O=C(N[C@@H]1CCCC[C@@H]1C(=O)N1CC[C@@H]2[C@H](c3ccccc3)Nc3ccccc3[C@@H]21)c1ccc(Cl)cc1` [Example 114, 4-Chloro-N-((1R,2S)-2-{[(3aR,4R,9bR)-4-phenyl-2,3,3a,4,5,9b-hexahydro-1H-pyrrolo[3,2-c]quinolin-1-yl]carbonyl}cyclohexyl)benzamide], less than 10 nM.
The figure for `O=C(Nc1cccnc1)N[C@@H]1CCCC[C@@H]1C(=O)N1CC[C@@H]2[C@H](c3ccccc3)Nc3ccccc3[C@@H]21` [Example 171, N-((1R,2S)-2-{[(3aR,4R,9bR)-4-Phenyl-2,3,3a,4,5,9b-hexahydro-1H-pyrrolo[3,2-c]quinolin-1-yl]carbonyl}cyclohexyl)-N′-pyridin-3-ylurea] is less than 10 nM.
The compound `CCOC(=O)CCC(=O)N[C@@H]1CCCC[C@@H]1C(=O)N1CC[C@@H]2[C@H](c3ccccc3)Nc3ccccc3[C@@H]21` [Example 108] had an IC50 of less than 10 nM.
`Cc1ccc(NC(=O)N[C@@H]2CCCC[C@@H]2C(=O)N2CC[C@@H]3[C@H](c4ccccc4)Nc4ccccc4[C@@H]32)cc1` [Example 138, N-(4-Methylphenyl)-N′-((1R,2S)-2-{[(3aR,4R,9bR)-4-phenyl-2,3,3a,4,5,9b-hexahydro-1H-pyrrolo[3,2-c]quinolin-1-yl]carbonyl}cyclohexyl)urea]: the IC50 was less than 1 nM.
`O=C(NCc1ccccc1)N[C@@H]1CCCC[C@@H]1C(=O)N1CC[C@@H]2[C@H](c3ccccc3)Nc3ccccc3[C@@H]21` [Example 143, N-Benzyl-N′-((1R,2S)-2-{[(3aR,4R,9bR)-4-phenyl-2,3,3a,4,5,9b-hexahydro-1H-pyrrolo[3,2-c]quinolin-1-yl]carbonyl}cyclohexyl)urea] yielded an IC50 of less than 10 nM.
The figure for `CCNC(=O)N[C@@H]1CCCC[C@@H]1C(=O)N1CC[C@@H]2[C@H](c3ccccc3)Nc3ccccc3[C@@H]21` [Example 151, N-Ethyl-N′-((1R,2S)-2-{[(3aR,4R,9bR)-4-phenyl-2,3,3a,4,5,9b-hexahydro-1H-pyrrolo[3,2-c]quinolin-1-yl]carbonyl}cyclohexyl)urea] is less than 10 nM; for `COC[C@@H]1Nc2ccccc2[C@H]2[C@@H]1CCN2C(=O)[C@H]1CCCC[C@H]1NC(=O)c1nc2ccccc2[nH]1` [Example 237, N-((1R,2S)-2-{[(3aR,4R,9bR)-4-(Methoxymethyl)-2,3,3a,4,5,9b-hexahydro-1H-pyrrolo[3,2-c]quinolin-1-yl]carbonyl}cyclohexyl)-1H-benzimidazole-2-carboxamide] it is less than 1 nM.
For `CCCCCC(=O)N[C@@H]1CCCC[C@@H]1C(=O)N1CC[C@@H]2[C@H](c3ccccc3)Nc3ccccc3[C@@H]21` [Example 93, N-((1R,2S)-2-{[(3aR,4R,9bR)-4-Phenyl-2,3,3a,4,5,9b-hexahydro-1H-pyrrolo[3,2-c]quinolin-1-yl]carbonyl}cyclohexyl)hexanamide], the IC50 was less than 10 nM.
The figure for `COC[C@@H]1Nc2ccccc2[C@H]2[C@@H]1CCN2C(=O)[C@H]1CCCC[C@H]1NC(=O)c1ccc(-n2cnc(C)c2)cc1` [Example 272, N-((1R,2S)-2-{[(3aR,4R,9bR)-4-(Methoxymethyl)-2,3,3a,4,5,9b-hexahydro-1H-pyrrolo[3,2-c]quinolin-1-yl]carbonyl}cyclohexyl)-4-(4-methyl-1H-imidazol-1-yl)benzamide] is less than 1 nM.
Compound `O=C(N[C@@H]1CCCC[C@@H]1C(=O)N1CC[C@@H]2[C@H](c3ccsc3)Nc3ccccc3[C@@H]21)c1ccc2[nH]nnc2c1` [Example 189, N-((1R,2S)-2-{[(3aR,4R,9bR)-4-(3-Thienyl)-2,3,3a,4,5,9b-hexahydro-1H-pyrrolo[3,2-c]quinolin-1-yl]carbonyl}cyclohexyl)-1H-1,2,3-benzotriazole-5-carboxamide] yielded a concentration for half-maximal inhibition (IC50) of less than 1 nM.
Turning to `O=C(CCCCCBr)N[C@@H]1CCCC[C@@H]1C(=O)N1CC[C@@H]2[C@H](c3ccccc3)Nc3ccccc3[C@@H]21` [Example 109, 6-Bromo-N-((1R,2S)-2-{[(3aR,4R,9bR)-4-phenyl-2,3,3a,4,5,9b-hexahydro-1H-pyrrolo[3,2-c]quinolin-1-yl]carbonyl}cyclohexyl)hexanamide], the IC50 was less than 10 nM.
With `COC[C@@H]1Nc2ccccc2[C@H]2[C@@H]1CCN2C(=O)[C@H]1CCCC[C@H]1NC(=O)c1ccc(-n2ccnc2)cc1` [Example 250, 4-(1H-Imidazol-1-yl)-N-((1R,2S)-2-{[(3aR,4R,9bR)-4-(methoxymethyl)-2,3,3a,4,5,9b-hexahydro-1H-pyrrolo[3,2-c]quinolin-1-yl]carbonyl}cyclohexyl)benzamide] the figure was less than 1 nM.
The compound `O=C(N[C@@H]1CCCC[C@@H]1C(=O)N1CC[C@@H]2[C@H](C3CC3)Nc3ccccc3[C@@H]21)c1ccccc1` (relative stereo) [Example 29, N-((1R,2S)-2-{[(3aR*,4S*,9bR*)-4-Cyclopropyl-2,3,3a,4,5,9b-hexahydro-1H-pyrrolo[3,2-c]quinolin-1-yl]carbonyl}cyclohexyl)benzamide] showed an IC50 of less than 10 nM.
The figure for `COC[C@@H]1Nc2ccccc2[C@H]2[C@@H]1CCN2C(=O)[C@H]1CCCC[C@H]1NC(=O)Nc1ccc(OC)cc1` [Example 206, N-((1R,2S)-2-{[(3aR,4R,9bR)-4-(Methoxymethyl)-2,3,3a,4,5,9b-hexahydro-1H-pyrrolo[3,2-c]quinolin-1-yl]carbonyl}cyclohexyl)-N′-(4-methoxyphenyl)urea] is less than 1 nM; for `COC[C@@H]1Nc2ccccc2[C@H]2[C@@H]1CCN2C(=O)[C@H]1CCCC[C@H]1NC(=O)c1c[nH]c2ccccc12` [Example 244, N-((1R,2S)-2-{[(3aR,4R,9bR)-4-(Methoxymethyl)-2,3,3a,4,5,9b-hexahydro-1H-pyrrolo[3,2-c]quinolin-1-yl]carbonyl}cyclohexyl)-1H-indole-3-carboxamide] it is less than 10 nM; for `COC[C@@H]1Nc2ccccc2[C@H]2[C@@H]1CCN2C(=O)[C@H]1CCCC[C@H]1NC(=O)c1ccc(N(C)C)cc1` [Example 213, 4-(Dimethylamino)-N-((1R,2S)-2-{[(3aR,4R,9bR)-4-(methoxymethyl)-2,3,3a,4,5,9b-hexahydro-1H-pyrrolo[3,2-c]quinolin-1-yl]carbonyl}cyclohexyl)benzamide] it is less than 1 nM.
With `O=C(N[C@@H]1CCCC[C@@H]1C(=O)N1CC[C@@H]2[C@H](c3ccccc3)Nc3cc(Cl)ccc3[C@@H]21)c1ccccc1` (relative stereo) [Example 7, N-((1R,2S)-2-{[(3aR*,4R*,9bR*)-7-Chloro-4-phenyl-2,3,3a,4,5,9b-hexahydro-1H-pyrrolo[3,2-c]quinolin-1-yl]carbonyl}cyclohexyl)benzamide] the figure was less than 10 nM.
